# According to US10968218B2, “Tetrahydropyridopyrimidines for the treatment and prophylaxis of hepatitis B virus infection” (Hoffmann-La Roche Inc., priority 2016, dated 2021):
# How the values were obtained:
# HBsAg = HBsAg assay (CLIA of secreted HBsAg in HepG2.2.15 culture supernatant); assay type: cell-based, HBV; settings: Hepatitis B virus
# Method: (§1) HepG2.2.15 cells (Acs et al. Proc Natl Acad Sci USA, 84, (1987), 4641-4), a constitutively HBV-expressing cell line were cultured in DMEM+Glutamax-I medium (Invitrogen, Carlsbad, Calif., USA), supplemented with 10% fetal bovine serum (Invitrogen) and G418 (Invitrogen) at a final concentration of 200 mg/L and maintained in 5% CO2 at 37° C.
# HepG2.2.15 cells were seeded in duplicate into white, 96-well plates at 1.5×10^4 cells/well. The cells were treated with a three-fold serial dilution series of the compounds in DMSO. The final DMSO concentration in all wells was 1% and DMSO was used as no drug control.
# The HBsAg chemiluminescence immunoassay (CLIA) kit (Autobio Diagnostics Co., Zhengzhou, China, Catalog number: CL0310-2) was used to measure the levels of secreted HBV antigens semi-quantitatively. For the detection 50 μL/well culture supernatant was used and HBsAg was quantified using HBsAg chemiluminescence immunoassay (CLIA) kit (Autobio Diagnostics Co., Zhengzhou, China, Catalog number: CL0310-2), 50 μL of the supernatant was transferred to the CLIA assay plate and 50 μL of enzyme conjugate reagent was added into each well. The plates were sealed and gently agitated for 1 hour at room temperature. The supernatant-enzyme-mixture was discarded and wells were washed 6 times with 300 μL of PBS. The residual liquid was removed by plating the CLIA plate right side down on absorbent tissue paper. 25 μL of substrates A and B were added to each well. Luminance was measured using a luminometer (Mithras LB 940 Multimode Microplate Reader) after 10 minutes incubation. Dose-response curves were generated and the IC50 value was extrapolated by using the E-WorkBook Suite (ID Business Solutions Ltd., Guildford, UK). The IC50 was defined as the compound concentration at which HBsAg secretion was reduced by 50% compared to the no drug control.
# The compounds according to formula I were tested for their capacity to inhibit HBsAg as described herein.
# HBV DNA = HBV DNA assay (real-time qPCR/TaqMan of extracellular HBV DNA, HepG2.2.15 cells); assay type: cell-based; settings: Hepatitis B virus, 144 h; Anti HBV DNA production activity in HepG2.2.15 cells, supernatant, six days after treatment
# Method: as §1
# The assay employs real-time qPCR (TaqMan) to directly measure extracellular HBV DNA copy number in the cell supernatant. HepG2.2.15 cells were plated in 96-well microtiter plates before treatment with complete medium (DMEM, Glutamax, 10% FBS, 1% Penicillin/Streptomycin, 250 μg/mL Genetycin, final DMSO concentration is 1%). Only the interior wells were utilized to reduce “edge effects” observed during cell culture, the exterior wells were filled with complete medium to help minimize sample evaporation. The HepG2.2.15 cells were treated 1 h later with various concentrations of a test compound in duplicate (top concentration used at 5 μM, 2 μM or 0.5 μM according to the HBsAg IC50 observed, with 1/3 successive dilutions (total of 10 dilutions). Six days following the initial administration of the test compound, the cell culture supernatant was collected; DNA extraction was performed by automated system (Magnapure) and then used in a real-time qPCR/TaqMan assay to determine HBV DNA copy numbers. Antiviral activity was calculated from the reduction in HBV DNA levels (IC50). The compounds of the present invention were tested for their capacity to inhibit HBV DNA as described herein.
Structure (SMILES),IC50 (HBsAg),IC50 (HBV DNA)
"CC1c2cnc(-c3cscn3)nc2CCN1c1cc(F)nc(N2CCN(S(C)(=O)=O)CC2)c1 (stereo not drawn) [Example 20, 4-[6-[2-fluoro-6-(4-methylsulfonylpiperazin-1-yl)-4-pyridyl]-5-methyl-7,8-dihydro-5H-pyrido[4,3-d]pyrimidin-2-yl]thiazole]",13 nM,20.3 nM
"COc1cc(F)nc(N2CCc3nc(-c4cscn4)ncc3C2C)c1 (stereo not drawn) [Example 5, 4-[6-(6-Fluoro-4-methoxy-2-pyridyl)-5-methyl-7,8-dihydro-5H-pyrido[4,3-d]pyrimidin-2-yl]thiazole]",23 nM,8.7 nM
"COc1cc(F)nc(N2CCc3nc(-c4ncn[nH]4)ncc3C2C)c1 (stereo not drawn) [Example 43, 6-(6-Fluoro-4-methoxy-2-pyridyl)-5-methyl-2-(1H-1,2,4-triazol-5-yl)-7,8-dihydro-5H-pyrido[4,3-d]pyrimidine]",8 nM,1.7 nM
"COC1CCN(c2cc(F)cc(N3CCc4nc(-c5cscn5)ncc4C3C)n2)C1 (stereo not drawn) [Example 25, 4-[6-[4-fluoro-6-(3-methoxypyrrolidin-1-yl)-2-pyridyl]-5-methyl-7,8-dihydro-5H-pyrido[4,3-d]pyrimidin-2-yl]thiazole]",60 nM,
"CC1c2cnc(-c3cscn3)nc2CCN1c1cc(F)nc(N2CCOCC2)c1 (stereo not drawn) [Example 12, 4-[6-fluoro-4-(5-methyl-2-thiazol-4-yl-7,8-dihydro-5H-pyrido[4,3-d]pyrimidin-6-yl)-2-pyridyl]morpholine]",36 nM,
"CC1c2cnc(-c3cscn3)nc2CCN1c1cc(OCC2CCOC2)cc(F)n1 (stereo not drawn) [Example 38, 4-[6-[6-fluoro-4-(tetrahydrofuran-3-ylmethoxy)-2-pyridyl]-5-methyl-7,8-dihydro-5H-pyrido[4,3-d]pyrimidin-2-yl]thiazole]",20 nM,
"COc1cc(F)nc(N2CCc3nc(-c4ncco4)ncc3C2C)c1 (stereo not drawn) [Example 4, 2-[6-(6-Fluoro-4-methoxy-2-pyridyl)-5-methyl-7,8-dihydro-5H-pyrido[4,3-d]pyrimidin-2-yl]oxazole]",316 nM,
"COc1cc(F)nc(N2CCc3nc(-c4cn(C)cn4)ncc3C2C)c1 (stereo not drawn) [Example 8, 6-(6-Fluoro-4-methoxy-2-pyridyl)-5-methyl-2-(1-methylimidazol-4-yl)-7,8-dihydro-5H-pyrido[4,3-d]pyrimidine]",29 nM,
"CC1c2cnc(-c3cscn3)nc2CCN1c1cc(F)cc(N2CCOCC2)n1 (stereo not drawn) [Example 14, 4-[4-fluoro-6-(5-methyl-2-thiazol-4-yl-7,8-dihydro-5H-pyrido[4,3-d]pyrimidin-6-yl)-2-pyridyl]morpholine]",74 nM,
"COc1cc(N2CCc3nc(-c4nccn4C)ncc3C2)cc(F)c1F [Example 1, 6-(3,4-Difluoro-5-methoxy-phenyl)-2-(1-methylimidazol-2-yl)-7,8-dihydro-5H-pyrido[4,3-d]pyrimidine]",1160 nM,
"CC1c2cnc(-c3cscn3)nc2CCN1c1cc(N2CCOCC2)cc(F)n1 (stereo not drawn) [Example 13, 4-[2-fluoro-6-(5-methyl-2-thiazol-4-yl-7,8-dihydro-5H-pyrido[4,3-d]pyrimidin-6-yl)-4-pyridyl]morpholine]",33 nM,
"COc1cc(F)nc(N2CCc3nc(-c4cc[nH]n4)ncc3C2C)c1 (stereo not drawn) [Example 27, 6-(6-Fluoro-4-methoxy-2-pyridyl)-5-methyl-2-(1H-pyrazol-3-yl)-7,8-dihydro-5H-pyrido[4,3-d]pyrimidine]",230 nM,
"CC1c2cnc(-c3cscn3)nc2CCN1c1cc(F)cc(N2CCNC(=O)C2)n1 (stereo not drawn) [Example 30, 4-[4-fluoro-6-(5-methyl-2-thiazol-4-yl-7,8-dihydro-5H-pyrido[4,3-d]pyrimidin-6-yl)-2-pyridyl]piperazin-2-one]",21 nM,
"COc1cc(F)nc(N2CCc3nc(-c4ncc[nH]4)ncc3C2C)c1 (stereo not drawn) [Example 26, 6-(6-Fluoro-4-methoxy-2-pyridyl)-2-(1H-imidazol-2-yl)-5-methyl-7,8-dihydro-5H-pyrido[4,3-d]pyrimidine]",31 nM,5.7 nM
"CC1c2cnc(-c3cscn3)nc2CCN1c1cc(F)nc(OCC2CCOC2)c1 (stereo not drawn) [Example 37, 4-[6-[2-fluoro-6-(tetrahydrofuran-3-ylmethoxy)-4-pyridyl]-5-methyl-7,8-dihydro-5H-pyrido[4,3-d]pyrimidin-2-yl]thiazole]",70 nM,
"COC1CCN(c2cc(N3CCc4nc(-c5cscn5)ncc4C3C)cc(F)n2)C1 (stereo not drawn) [Example 23, 4-[6-[2-fluoro-6-(3-methoxypyrrolidin-1-yl)-4-pyridyl]-5-methyl-7,8-dihydro-5H-pyrido[4,3-d]pyrimidin-2-yl]thiazole]",35 nM,
"COc1cc(F)nc(N2CCc3nc(-c4csc(C)n4)ncc3C2C)c1 (stereo not drawn) [Example 15, 4-[6-(6-fluoro-4-methoxy-2-pyridyl)-5-methyl-7,8-dihydro-5H-pyrido[4,3-d]pyrimidin-2-yl]-2-methyl-thiazole]",1520 nM,
